In series [1] the test system is Plasmodium berghei. The series is described as follows: Antimalarial activity against Plasmodium berghei infected in mouse assessed as suppression in parasitemia at 33.3 mg/kg, ip dosed once daily on days 0, 1, and 2 days post infection measured on day 5 post infection relative to untreated control. The series is classed as functional.
The subject of series [2] is Plasmodium berghei. The series is described as follows: Antimalarial activity against Plasmodium berghei infected in mouse assessed as suppression in parasitemia at 11.1 mg/kg, ip dosed once daily on days 0, 1, and 2 days post infection measured on day 5 post infection relative to untreated control. It is filed as functional.
The test system of series [3] is Plasmodium berghei. The series is described as follows: Antimalarial activity against Plasmodium berghei infected in mouse assessed as suppression in parasitemia at 33.3 mg/kg, ip dosed once daily on days 0, 1, and 2 days post infection measured on day 7 post infection relative to untreated control. It is filed as functional.
Series [4] relates to Plasmodium berghei. Description: Antimalarial activity against Plasmodium berghei infected in mouse assessed as suppression in parasitemia at 11.1 mg/kg, ip dosed once daily on days 0, 1, and 2 days post infection measured on day 7 post infection relative to untreated control. It is filed as functional.
For series [5], the system named is Plasmodium berghei. Description: Antimalarial activity against Plasmodium berghei infected in mouse assessed as host survival at 33.3 mg/kg, ip dosed once daily on days 0, 1, and 2 days post infection measured on day 28 post infection relative to untreated control. The series is classed as functional, organism-based.
In series [6] the test system is Plasmodium berghei. Description: Antimalarial activity against Plasmodium berghei infected in mouse assessed as mean survival time at 33.3 mg/kg, ip dosed once daily on days 0, 1, and 2 days post infection measured on day 28 post infection (reference value: 13.2 days). The series is classed as functional.
Series [7] relates to Plasmodium berghei. Description: Antimalarial activity against Plasmodium berghei infected in mouse assessed as mean survival time at 11.1 mg/kg, ip dosed once daily on days 0, 1, and 2 days post infection measured on day 28 post infection (reference value: 13.2 days). The series is classed as functional.
The test system of series [8] is Plasmodium berghei. The series is described as follows: Antimalarial activity against Plasmodium berghei infected in mouse assessed as parasitemia cure at 11.1 mg/kg, ip dosed once daily on days 0, 1, and 2 days post infection measured on day 28 post infection. It is filed as functional, organism-based.
The subject of series [9] is Heme. The series is described as follows: Binding affinity to monomeric heme assessed as decrease in the Soret band at pH 5.6 by spectrophotometric titration analysis.
Series [10] relates to Heme. The series is described as follows: Binding affinity to monomeric heme assessed as decrease in the Soret band at pH 7.4 by spectrophotometric titration analysis.
Series [11] has as its system Heme. The series is described as follows: Binding affinity to monomeric heme assessed as mole fraction for 1:1 binding stoichiometry with monomeric heme at pH 5.6 by spectrophotometric titration analysis.
For series [12], the system named is Heme. Description: Binding affinity to monomeric heme assessed as mole fraction for 1:1 binding stoichiometry with monomeric heme at pH 7.4 by spectrophotometric titration analysis.
The nature of series [13]: Half life human liver microsomes in the presence of NADPH. It is filed as ADME, Microsome. (Microsomes from liver hold many membrane-bound enzymes, among them those of drug oxidation.)
Series [14] is described as follows: Intrinsic clearance human liver microsomes in the presence of NADPH. As to conditions: read-out: CLH. The series is classed as ADME, Microsome.
Series [15] concerns Plasmodium falciparum. The series is described as follows: microbe, parasite or virus in culture. Particulars: NF54, 48 h.
Description: Antiplasmodial activity against chloroquine-sensitive Plasmodium falciparum NF54 incubated for 48 hrs by parasite lactate dehydrogenase assay
Series [16] concerns Plasmodium falciparum. The series is described as follows: microbe, parasite or virus in culture. Particulars: Dd2, 48 h.
Description: Antiplasmodial activity against chloroquine-resistant Plasmodium falciparum Dd2 incubated for 48 hrs by parasite lactate dehydrogenase assay
Series [17] concerns Plasmodium falciparum. The series is described as follows: Potency index, ratio of IC50 for chloroquine to IC50 for test compound for antiplasmodial activity against chloroquine-resistant Plasmodium falciparum Dd2 incubated for 48 hrs by parasite lactate dehydrogenase assay. It is filed as functional.
Series [18] has as its system Plasmodium falciparum. Description: Potency index, ratio of IC50 for artemisinin to IC50 for test compound for antiplasmodial activity against chloroquine-resistant Plasmodium falciparum Dd2 incubated for 48 hrs by parasite lactate dehydrogenase assay. The series is classed as functional.
In a further series the test system is CHO. Description: Cytotoxicity in CHO cells assessed as reduction in cell viability. It is filed as cell-based. As to conditions: Cricetulus griseus.
Series [19] relates to Plasmodium berghei. Description: Antimalarial activity against Plasmodium berghei infected in mouse assessed as host survival at 11.1 mg/kg, ip dosed once daily on days 0, 1, and 2 days post infection measured on day 28 post infection relative to untreated control. It is filed as functional, organism-based.
The subject of series [20] is Plasmodium berghei. Description: Antimalarial activity against Plasmodium berghei infected in mouse assessed as parasitemia cure at 33.3 mg/kg, ip dosed once daily on days 0, 1, and 2 days post infection measured on day 28 post infection. The series is classed as functional, organism-based.
The nature of series [21]: in vitro. As to conditions: hamster, CHO cells versus Plasmodium falciparum NF54.
Description: Selectivity index, ratio of IC50 for CHO cells to IC50 for antiplasmodial activity against chloroquine-sensitive Plasmodium falciparum NF54
A short description of series [22]: in vitro. Particulars: hamster, CHO cells versus Plasmodium falciparum Dd2.
Description: Selectivity index, ratio of IC50 for CHO cells to IC50 for antiplasmodial activity against chloroquine-resistant Plasmodium falciparum Dd2

The source made the active and inactive calls. The calls are words filed in the database; no cut-off is given here.

The half-life is the time in which the quantity being followed falls by half. A word on the IC50: it is the point on the concentration scale where inhibition reaches its midpoint. In the case of `Cc1cc(NCc2cc(Nc3ccnc4cc(Cl)ccc34)ccc2F)nc(N2CCN(C)CC2)n1`, the Activity is 100% with Plasmodium berghei [1], 91.9% in the series on Plasmodium berghei [2], 100% in the series on Plasmodium berghei [3] and 92.9% in the series on Plasmodium berghei [4]. Also, the outcome in the series with Plasmodium berghei [5], in the series with Heme [9] and with Heme [10] was Active. The values for the MST in the series on Plasmodium berghei [6] and with Plasmodium berghei [7] were 28 days and 19.8 days, respectively. In the series with Plasmodium berghei [8], the result was inactive. For the same molecule, the Activity (mole fraction) in the series on Heme [11] and with Heme [12] was 0.5 throughout. The half-life in series [13] came out at 16.7 min. The microsomal CLint in [14] turned out to be 82.8 µL/min/mg. The IC50 came to 12.5 nM in the series with Plasmodium falciparum [15] and 5.24 nM in the series on Plasmodium falciparum [16].
On to `Cc1cc(N2CCCCC2)nc(NCc2cc(Nc3ccnc4cc(Cl)ccc34)ccc2F)n1`, for which the “Ratio IC50” value is on record as 47.3 in the series on Plasmodium falciparum [17] and 2.8 in the series with Plasmodium falciparum [18]. In addition, the IC50 in the series with CHO is 3.18 µM; in the series on Plasmodium falciparum [15], 13.4 nM; with Plasmodium falciparum [16], 4.69 nM. For the same molecule, the Activity in the series with Plasmodium berghei [1], in the series on Plasmodium berghei [2], in the series with Plasmodium berghei [3] and in the series on Plasmodium berghei [4] was 100% throughout. The result with Plasmodium berghei [5], in the series on Plasmodium berghei [19] and with Plasmodium berghei [20] was Active. The MST in the series with Plasmodium berghei [6] and with Plasmodium berghei [7] was 28 days throughout. The result in the series with Plasmodium berghei [8] was inactive. For the same molecule, the selectivity ratio in “in vitro [21]” is 237; in the series “in vitro [22]”, 680.

Source of the values: ChEMBL document CHEMBL4433224, “Hybridization of Fluoro-amodiaquine (FAQ) with Pyrimidines: Synthesis and Antimalarial Efficacy of FAQ-Pyrimidines” (ACS Med Chem Lett, 2019).
